The values below come from patent US4965283A, “Amino acid esters, process for the preparation thereof and use thereof” (Dr. Willmar Schwabe GmbH & Co., priority 1987, dated 1990).

The subject of this assay is maximum electroshock spasm (MES), extensor spasm in mice. Description: MES test (maximum electroshock; inhibition of extensor spasm). Particulars: oral; for ED 50 values (estimated values) / ED50 / ED 50 values: MES test, 1 hour after administration; for ED 50 values (estimated values): * estimated from several tests with different dosages; for responders at 25 mg/kg / responders at 100 mg/kg / responders at 50 mg/kg / ED50: Mus musculus, po; for responders at 25 mg/kg / responders at 100 mg/kg / responders at 50 mg/kg / protective action [%] after 1 hr / protective action [%] after 3 hrs: n = 10; for ED50: read-out: ED 50 values. Type of assay: in vivo, male mice (NMRI). The source says: For the determination of the anticonvulsive/anti-epileptic activity of the substances according to the present invention the method described by E. A. Swinyard et al., J. Pharmacol. exp. Therapeut. 106, 319-330 (1952) and by L. A. Woodbury et al., Arch. int. Pharmacodyn., 92, 97-107 (1952) was used. To male mice (NMRI) with a body weight of 20-25 g via corneal electrodes, an alternating current of 50 Hz and 50 mA is applied for 0.2 sec. (HSE-shock stimulation apparatus; type 207). The maximum electroshock spasm (MES) consists of a tonic extension of the rear extremities, the clonic twitch and loss of consciousness. The activity criterion is taken as being the inhibition of the extensor spasm by the substances according to the present invention. Before the experiments the mice had free access to feed and water. The test substances were administered orally as suspensions in 0.2% agar by stomach tubes; the control animals received adequate volumes of agar. 1 hour and 3 hours after administration the test for protective action against MES was carried out.
As percentage action the percentage proportion of those animals which in the MES test were protected 100% against the extensor spasm is given. 10 animals were used per test.
The ED 50 values were determined according to Lichtfield and Wilcoxon J. Pharmacol. exp. Therapeut. 96, 99 (1949) in each case with 4 to 5 animal groups each of 8-10 animals per dosage stage.

The mark [1] stands for this setting: 1 h, 100 mg/kg, 1 hr after administration, read-out: protective action [%] after 1 hr.
The mark [2] stands for this setting: 3 h, 100 mg/kg, 3 hrs after administration, read-out: protective action [%] after 3 hrs.
[3] abbreviates: 1 h, 50 mg/kg, 1 hr after administration, read-out: protective action [%] after 1 hr.
Setting [4] is: 3 h, 50 mg/kg, 3 hrs after administration, read-out: protective action [%] after 3 hrs.
[5] abbreviates: 100 mg/kg, 1 hr after administration.
The mark [6] stands for this setting: 100 mg/kg, 3 hrs after administration.
Setting [7] is: 50 mg/kg, 1 hr after administration.
Setting [8] is: 50 mg/kg, 3 hrs after administration.

Structures can show the parent of a compound that is named as a salt. Where two headings read alike, the source gives them in different places.

As for `COC1=CC(=O)O[C@H]1[C@H](OC(=O)C(C)(C)N)c1ccccc1Cl` (relative stereo) [Example 155, threo-5-[2-chlorophenyl-(2-methylalanyloxy)-methyl]-4-methoxy-2(5H)-furanone-hydrobromide], the “ED 50 values (estimated values)” value is 20 to 30 mg/kg. Further, the responders at 25 mg/kg (1 h, 1 hr after administration, read-out: protective action [%] after 1 hr) stood at 50%. Moreover, the responders at 25 mg/kg (3 h, 3 hrs after administration, read-out: protective action [%] after 3 hrs) worked out at 10%.
Regarding `COC1=CC(=O)OC1C(OC(=O)[C@@H]1CCCN1)c1ccccc1C` (single isomer, unassigned) [141 A], the “ED 50 values (estimated values)” value was 110 to 120 mg/kg. Besides, the responders at 100 mg/kg under setting [1] amounted to 40%. Under setting [2], the responders at 100 mg/kg was 10%.
On to `COC1=CC(=O)O[C@H]1[C@H](OC(=O)CN)c1ccc(Cl)cc1Cl` (relative stereo) [Example 130, threo-5-[2,4-dichlorophenyl-(glycyloxy)-methyl]-4-methoxy-2(5H)-furanone hydrobromide], for which the “ED 50 values (estimated values)” value is 40 to 50 mg/kg. In addition, under setting [1], the responders at 100 mg/kg is 100%. For the same compound, the responders at 100 mg/kg under setting [2] was 100%.
Regarding `COC1=CC(=O)OC1C(OC(=O)[C@@H]1CCCN1)c1ccccc1` (some centres unmarked) [110 A], the “ED 50 values (estimated values)” value is 40 to 50 mg/kg. For the same compound, the responders at 100 mg/kg under setting [1] amounted to 100%. For the same compound, under setting [2], the responders at 100 mg/kg was 0%.
As for `COC1=CC(=O)O[C@@H]1[C@@H](OC(=O)[C@@H]1CCCN1)c1ccccc1Cl` [104 A], the responders at 50 mg/kg is, setting by setting: under setting [3], 100%; under setting [4], 100%.
In the case of `COC1=CC(=O)OC1C(OC(=O)[C@@H]1CCCN1)c1ccccc1Br` (single isomer, unassigned) [127 A], the responders at 50 mg/kg is 100% under setting [3] and 100% under setting [4].
Regarding `COC1=CC(=O)O[C@H]1[C@H](OC(=O)CCCNC(C)=O)c1ccccc1Cl` (relative stereo) [Example 115, threo-5-[4-(N-acetylamino)-butanoyloxy-(2-chlorophenyl)methyl]-4-methoxy-2(5H)-furanone], the “ED 50 values (estimated values)” value is 30 to 40 mg/kg. In addition, the responders at 100 mg/kg under setting [1] was 100%. Moreover, the responders at 100 mg/kg under setting [2] was 100%.
On to `COC1=CC(=O)OC1C(OC(=O)[C@H](N)c1ccccc1)c1ccccc1Cl` (some centres unmarked) [119 B], for which the responders at 50 mg/kg under setting [3] was 100% and the responders at 50 mg/kg under setting [4] was found to be 20%. Further, the ED50 (1 h) came out at 37.6 mg/kg.
Consider `COC1=CC(=O)O[C@H]1[C@H](OC(=O)CN)c1ccc(Cl)cc1Cl` (relative stereo) [Example 131, threo-5-[2,4-dichlorophenyl-(glycyloxy)-methyl]-4-methoxy-2(5H)-furanone hydrochloride], for which the ED50 (1 h) was determined as 54.5 mg/kg.
With `COC1=CC(=O)O[C@H]1[C@H](OC(=O)[C@@H]1CCCN1)c1ccccc1Cl` [104 B], under setting [5], the “protective action [%] after 1 hr” value is recorded as 60%. For the same compound, the “protective action [%] after 3 hrs” value under setting [6] turned out to be 0%. Also, the “ED 50 values” (60 min) came out at 105 mg/kg.
Regarding `COC1=CC(=O)O[C@H]1[C@H](OC(=O)[C@@H]1CCCN1)c1ccccc1Cl` [103 B], the responders at 100 mg/kg reads like this: under setting [1], 50%; under setting [2], 0%. Also, the ED50 (1 h) turned out to be 95 mg/kg.
Consider `COC1=CC(=O)O[C@H]1[C@H](OC(=O)CNC(C)=O)c1ccccc1Cl` (relative stereo) [Example 106, threo-5-[N-acetylglycyloxy-(2-chlorophenyl)-methyl]-4-methoxy-2(5H)-furanone], for which the responders at 50 mg/kg reads like this: under setting [3], 100%; under setting [4], 70%. For the same compound, for the setting “1 h”, the ED50 is 23.1 mg/kg.
As to `COC1=CC(=O)OC1C(OC(=O)[C@H](C)N)c1ccc(Cl)cc1Cl` (stereo partly drawn) [Example 133, threo-5-[L-alanyloxy-(2,4-dichlorophenyl)-methyl]-4-methoxy-2(5H)-furanone hydrobromide], the “ED 50 values (estimated values)” value is 60 to 70 mg/kg. The responders at 100 mg/kg under setting [1] is 100%. Further, the responders at 100 mg/kg under setting [2] worked out at 100%.
As for `COC1=CC(=O)O[C@H]1[C@H](OC(=O)CN)c1ccccc1Cl` (relative stereo) [Example 111, threo-5-[2-chlorophenyl-(glycyloxy)-methyl]-4-methoxy-2(5H)-furanone hydrobromide], the responders at 50 mg/kg amounted to 100% under setting [3] and 80% under setting [4]. Moreover, the ED50 (1 h) came to 24.2 mg/kg.
As to `COC1=CC(=O)O[C@H]1[C@H](OC(=O)C1(N)CCCCC1)c1ccccc1Cl` (relative stereo) [Example 157, threo-5-[1-amino-1-cyclohexylcarbonyloxy-(2-chlorophenyl)-methyl]-4-methoxy-2(5H)-furanone hydrobromide], the responders at 100 mg/kg under setting [1] was found to be 100% and the responders at 100 mg/kg under setting [2] was determined as 40%. Moreover, under “1 h”, the ED50 was 27.5 mg/kg.
`COC1=CC(=O)OC1C(OC(=O)[C@@H](N)c1ccccc1)c1ccccc1Cl` (single isomer, unassigned) [117 B]: under setting [7], the “protective action [%] after 1 hr” value is 90%. For the same compound, under setting [8], the “protective action [%] after 3 hrs” value worked out at 0%. Besides, the “ED 50 values” (60 min) was 25.3 mg/kg.
In the case of `COC1=CC(=O)OC1C(OC(=O)[C@@H]1CCCN1)c1ccccc1F` (single isomer, unassigned) [129 A], the “ED 50 values (estimated values)” value was 40 to 50 mg/kg. The “protective action [%] after 1 hr” value under setting [5] was determined as 100%. Besides, the “protective action [%] after 3 hrs” value under setting [6] was 100%.
On to `COC1=CC(=O)O[C@H]1[C@H](OC(=O)CN)c1ccccc1` (relative stereo) [Example 105, threo-5-[glycyloxy-(phenyl)-methyl]-4-methoxy-2(5H)-furanone hydrobromide], for which the responders at 100 mg/kg was 70% under setting [1] and 0% under setting [2]. Also, under “1 h”, the ED50 was 87.5 mg/kg.
In the case of `COC1=CC(=O)O[C@H]1[C@H](OC(=O)CCCN)c1ccccc1Cl` (relative stereo) [Example 113, threo-5-[4-aminobutanoyloxy-(2-chlorophenyl)-methyl]-4-methoxy-2(5H)-furanone hydrobromide], the “ED 50 values (estimated values)” value is 25 to 35 mg/kg. Moreover, the responders at 50 mg/kg under setting [3] amounted to 100%. The responders at 50 mg/kg under setting [4] worked out at 50%.
As for `COC1=CC(=O)OC1C(OC(=O)[C@@H]1CCCN1)c1ccccc1F` (single isomer, unassigned) [129 B], the “ED 50 values (estimated values)” value is 95 to 105 mg/kg. Further, the “protective action [%] after 1 hr” value under setting [5] is listed as 50%. Besides, the “protective action [%] after 3 hrs” value under setting [6] came out at 0%.
`COC1=CC(=O)O[C@@H]1[C@@H](OC(=O)[C@@H]1CCCN1)c1ccccc1Cl` [103 A]: the responders at 100 mg/kg by setting is: under setting [1], 100%; under setting [2], 100%. Besides, the ED50 (1 h) was 10.7 mg/kg.
On to `COC1=CC(=O)O[C@H]1[C@H](OC(=O)CNC(C)=O)c1ccc(Cl)cc1Cl` (relative stereo) [Example 132, threo-5-[N-acetylglycyloxy-(2,4-dichlorophenyl)-methyl]-4-methoxy-2(5H)-furanone], for which the responders at 100 mg/kg was determined as 20% under setting [1] and 50% under setting [2].
For the compound `Br.COC1=CC(=O)OC1C(OC(=O)CN)c1ccccc1Cl` (single isomer, unassigned; (-)) [Example 153], the “protective action [%] after 1 hr” value under setting [5] stood at 40%. Further, under setting [6], the “protective action [%] after 3 hrs” value was found to be 0%.
Regarding `COC1=CC(=O)OC1C(OC(=O)[C@@H](N)CCC(N)=O)c1ccccc1Cl` (single isomer, unassigned) [122 A], the “ED 50 values (estimated values)” value is 15 to 20 mg/kg. Further, under setting [3], the responders at 50 mg/kg was 100%. The responders at 50 mg/kg under setting [4] worked out at 100%.
As for `COC1=CC(=O)OC1C(OC(=O)[C@@H]1CCCN1)c1ccccc1C(F)(F)F` (some centres unmarked) [139 B], the responders at 100 mg/kg under setting [1] was determined as 40% and the responders at 100 mg/kg under setting [2] came to 10%.
Regarding `COC1=CC(=O)OC1C(OC(=O)[C@@H]1CCCN1C(C)=O)c1ccccc1Cl` (single isomer, unassigned) [107 A], the “ED 50 values (estimated values)” value is 10 to 15 mg/kg. Also, under setting [1], the responders at 100 mg/kg turned out to be 100%. Moreover, the responders at 100 mg/kg under setting [2] came out at 60%.
`COC1=CC(=O)OC1C(OC(=O)CNC(C)=O)c1ccccc1Cl` (single isomer, unassigned; (+)) [Example 150]: the “ED 50 values” was 14.4 mg/kg. Also, the “protective action [%] after 1 hr” value under setting [7] was 100%. In addition, the “protective action [%] after 3 hrs” value under setting [8] turned out to be 100%.
For the compound `COC1=CC(=O)OC1C(OC(=O)[C@@H](N)c1ccccc1)c1ccccc1` (single isomer, unassigned) [108 A], the “ED 50 values (estimated values)” value is 70 to 80 mg/kg. Besides, under setting [1], the responders at 100 mg/kg came to 90%. For the same compound, the responders at 100 mg/kg under setting [2] turned out to be 0%.
